Assays:
[1] = tested on: 2 mm biopsy punch wound in the center of the cartilaginous region; conditions: XAV939 dissolved in DMSO; cited from earlier work
CRE, F-κB, or TGF-β = conditions: cited from earlier work
[2] = tested on: 2 mm biopsy punch wound in the center of the cartilaginous region of each ear; assay: Cartilage regrowth in mouse ears after 2 mm biopsy punch wound (Example 2); format: in vivo, C57Bl/6J mice; conditions: XAV939 in DMSO every day for 30 days
Text: C57Bl/6J mice were purchased from The Jackson Laboratory (Bar Harbor, ME, USA) and maintained by PPY. C57Bl/6J mice (at least 3 months of age) were anesthetized with 3-5% isoflurane in O2 administered using Tabletop Laboratory Animal Anesthesia System (VetEquip Inc., Pleasanton, CA, USA). A 2 mm biopsy punch wound was made in the center of the cartilaginous region of each ear using a disposable biopsy punch (Acuderm Inc., Fort Lauderdale, FL, USA) as described previously (Rai, M. F. et al, 2021, Arthritis Rheum., 64:2300-2310). […] In order to quantify closure of the wounds, ears were excised following mouse sacrifice, fixed and placed on microscope slides for examination by way of the digital camera being affixed to a Micromaster Inverted microscope (Thermo Fisher Scientific, Waltham, MA, USA). […] Sections of the tissue were then stained with Trichome blues, imaged and analyzed by way of an Olympus DP71 microscope camera (Olympus America, Center Valley, PA, USA). […] For quantification of wound closure, ears were excised after the mice were sacrificed, placed on microscope slides (Denville Scientific, South Plainfield, NJ, USA) and imaged using Nikon Coolpix 8700 affixed to Micromaster Inverted microscope (Thermo Fisher Scientific, Waltham, MA, USA). […]

[3] = cited from earlier work
ear punch wound = conditions: topical application, dissolved in DMSO; cited from earlier work

## Oc1nc(-c2ccc(C(F)(F)F)cc2)nc2c1CSCC2 [XAV939, 3,5,7,8-Tetrahydro-2-[4-(trifluoromethyl)phenyl]-4H-thiopyrano[4,3-d]pyrimidin-4-one]
[1]
  cartilage regeneration and healing following acute injury: increased cartilage regeneration and healing
CRE, F-κB, or TGF-β
  effect on CRE, F-κB, or TGF-β: does not affect
[2]
  nature and character of the cartilage regrowth in the wounds, compared to DMSO control: improved
[3]
  aqueous solubility: < 1 µg/mL
Ear punch wound
  fibrosis (scarring): reduced fibrosis
  rate of wound closure: significantly increased

From US20260248722A1, “METHOD FOR CARTILAGE REGENERATION AND REGROWTH FOLLOWING INJURY” (ELUCIDERM INC., priority 2021, published 2026)
